Data: paper PMC6006285, “Specific stereochemistry of OP-1074 disrupts estrogen receptor alpha helix 12 and confers pure antiestrogenic activity” (Nature Communications, 2018)
Where “and” joins values, the source holds several entries; their conditions need not be identical. Identical values can stand only once. Like-named read-outs stand apart in the source and are kept apart here.

Key:
Format in all cases: cell-based
[1] = tested on: estrogen responsive reporter gene, ERE-tk109-Luc, in MCF-7 cells; experiment: Inhibition of E2-stimulated transcription of ERE-tk109-Luc reporter gene in MCF-7 cells; details: Homo sapiens
wild type ERα = target: T1, wild type ERα (Homo sapiens, UniProt P03372); experiment: ERE3X-TATA-Luc reporter in HeLa cells transfected with ERα; details: 1 nM E2, 22 h, read-out: IC50 inhibition of E2-stimulated ERα transcriptional activity
T1 construct: expressed in transfected cells; host or cells: HeLa
T1 sequence (P03372 1-595): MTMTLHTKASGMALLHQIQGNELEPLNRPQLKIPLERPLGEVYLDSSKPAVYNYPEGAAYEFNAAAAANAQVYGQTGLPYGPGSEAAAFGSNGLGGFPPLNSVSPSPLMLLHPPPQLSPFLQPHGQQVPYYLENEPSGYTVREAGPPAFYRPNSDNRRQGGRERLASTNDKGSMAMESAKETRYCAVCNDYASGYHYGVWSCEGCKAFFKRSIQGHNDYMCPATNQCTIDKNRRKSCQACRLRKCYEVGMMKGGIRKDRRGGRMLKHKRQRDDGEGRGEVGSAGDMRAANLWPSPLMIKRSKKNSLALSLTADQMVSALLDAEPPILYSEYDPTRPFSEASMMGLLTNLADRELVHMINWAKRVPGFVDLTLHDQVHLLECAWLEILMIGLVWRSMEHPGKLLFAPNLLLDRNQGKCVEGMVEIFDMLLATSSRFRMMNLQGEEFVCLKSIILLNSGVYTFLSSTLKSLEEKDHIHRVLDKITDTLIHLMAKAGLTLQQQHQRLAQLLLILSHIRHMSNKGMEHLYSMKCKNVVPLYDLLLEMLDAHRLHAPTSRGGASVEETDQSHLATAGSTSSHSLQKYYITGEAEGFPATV
Text: Supplementary Figure 2: Specificity of OP-1074
Supplementary Figure 2. OP-1074 is specific for ERα and ERβ. A, OP-1074 inhibits E2-stimulated ERα and ERβ mediated transcription. HeLa cells were transfected with an estrogen responsive reporter gene, ERE3X-TATA-Luc, along with wild type ERα or ERβ, and treated […]
Shown is the mean luciferase activity
Luciferase activity (% Dex)
Luciferase activity (% MPA)
Luciferase activity (% R1881)
(1 picture or pasted object on this page, not shown here) […]
(§1) representative experiment. […]
(§2) receptor (AR, (B)), glucocorticoid receptor (GR, (C)), and the B-isoform of the progesterone receptor (PR-B, (D)). HeLa cells were transfected with the designated wild type receptor along with reporter gene PRE3X-TATA-Luc, which is promiscuously activated with known agonists specific for each receptor: R1881 for AR, dexamethasone (Dex) for GR, and medroxyprogesterone acetate (MPA) for PR-B. Each receptor was also dosed with one concentration of known antagonist for each receptor: 32 nM bicalutamide for AR, and 500 nM RU486 for GR and PR. Transfected cells were treated with the designated ligands for 22 hours and luciferase activity assayed. Shown are representative experiments, independently performed at least 3 times. Note that curves for agonists for each receptor were performed in separate experiments. […]

[2] = target: T2, B-isoform of the progesterone receptor (PR-B) (Homo sapiens, UniProt P06401); experiment: PRE3X-TATA-Luc reporter in HeLa cells transfected with PR-B; details: alone or + 500 nM MPA, 22 h
T2 construct: HeLa cells were transfected as above but also with plasmids for full length wild; expressed in transfected cells; host or cells: HeLa
T2 sequence (P06401 1-933): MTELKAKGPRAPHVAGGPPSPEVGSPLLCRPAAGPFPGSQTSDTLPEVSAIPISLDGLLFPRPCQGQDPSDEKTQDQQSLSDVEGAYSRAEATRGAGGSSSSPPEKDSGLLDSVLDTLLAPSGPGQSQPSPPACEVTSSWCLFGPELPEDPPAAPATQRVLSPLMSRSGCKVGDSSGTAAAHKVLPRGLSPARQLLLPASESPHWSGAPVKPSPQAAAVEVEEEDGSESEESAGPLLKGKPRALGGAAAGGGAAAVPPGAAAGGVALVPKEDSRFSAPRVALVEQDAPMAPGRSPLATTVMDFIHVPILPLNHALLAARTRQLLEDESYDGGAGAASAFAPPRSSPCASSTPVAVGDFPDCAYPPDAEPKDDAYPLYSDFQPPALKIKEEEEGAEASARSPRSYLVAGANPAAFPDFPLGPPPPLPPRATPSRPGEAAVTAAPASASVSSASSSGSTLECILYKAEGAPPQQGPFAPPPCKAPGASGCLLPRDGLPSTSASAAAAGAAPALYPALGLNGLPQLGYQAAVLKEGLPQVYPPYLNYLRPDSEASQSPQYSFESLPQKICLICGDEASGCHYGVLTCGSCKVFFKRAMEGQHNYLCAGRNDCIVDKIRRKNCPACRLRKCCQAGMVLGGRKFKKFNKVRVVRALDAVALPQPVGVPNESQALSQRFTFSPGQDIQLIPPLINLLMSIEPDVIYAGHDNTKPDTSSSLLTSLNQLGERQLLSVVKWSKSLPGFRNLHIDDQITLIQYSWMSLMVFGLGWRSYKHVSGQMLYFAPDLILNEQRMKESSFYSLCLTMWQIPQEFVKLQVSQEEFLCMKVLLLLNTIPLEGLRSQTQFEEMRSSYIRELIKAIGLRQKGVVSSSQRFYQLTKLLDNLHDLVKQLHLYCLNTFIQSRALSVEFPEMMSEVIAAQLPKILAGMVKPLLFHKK
Method: as §1
as §2, with “experiments. Shown are means with SEM, normalized to percent of 32 nM R1881 for AR, 32 nM Dex for GR, and 0.5 µM MPA for PR-B (except with MPA alone, which was normalized to” for “experiments.”
either ERα or ERβ, and 85 ng ERE-3x-Luc, containing 3 copies of estrogen-response element (ERE) cloned into pGL4.23 luciferase reporter gene containing a minimal TATA promoter […]
hours (1.25% total final charcoal dextran stripped FBS). Bright Glo luciferase reagent (Promega) […]

`CC1=C(c2ccc(O)cc2)[C@H](c2ccc(OCCN3CC[C@@H](C)C3)cc2)Oc2cc(O)ccc21` [OP-1074] was tested, and the IC50 ([1]; MCF7, 22 h, read-out: IC50 inhibition of E2-stimulated transcription (Fig. 3a)) was 3.2 nM, the IC50 ([1]; MCF7, 24 h, read-out: IC50 transcription) was 1.8 ± 0.3 nM and the IC50 (wild type ERα) was 1.6 nM and 1.7 nM. The “Agonist and antagonist activity on PR-B” value [2] was “lacks agonist and antagonist activity”.
